Assay results taken from publication PMC10771296, “Plectasin: from evolution to truncation, expression, and better druggability” (Frontiers in Microbiology, 2023).
Converted amounts (≈) assume the structure as drawn. Where two headings read alike, the source gives them in different places. Marks after values point to notes of the source that are not given here.

Assays:
mouse erythrocytes = details: 256 μg/mL; ref Zhang et al., 2011; Yang et al., 2019; cited from earlier work
Text: The length, positive charge number, and amphiphilicity of the derived peptide Ple-AB were altered, reducing the peptide chain length from 40 to 36 amino acids, reducing the molecular weight from 4407.99 to 4006.66 Da, increasing the charge number from +1 to +3, and increasing the hydrophobicity from −0.695 to −0.469 (Table 1).

S. aureus ATCC43300 [1] = details: ref Lei et al., 2018; cited from earlier work
Text: Clinical applications require drugs that exhibi ...

S. aureus ATCC43300 [2] = details: ref Yang et al., 2019; cited from earlier work
Text: (§1) Table 3 The MIC values of Ple-AB. | column: MIC (μg/mL) / Plectasin

S. aureus CVCC546 = details: ref Yang et al., 2019; cited from earlier work
Text: as §1

S. aureus E48 = details: ref Yang et al., 2019; cited from earlier work
Text: as §1

P. aeruginsoa CICC21630 = details: ref Yang et al., 2019; cited from earlier work
Text: as §1

E. coli O157 = details: ref Yang et al., 2019; cited from earlier work
Text: as §1

S. aureus ATCC43300 [3] = assay: MIC/MBC, micro broth dilution; assay type: cell-based, Staphylococcus aureus; details: Staphylococcus aureus, ATCC43300; micro broth dilution, 1 × 10^5 CFU/mL, repeated thrice; read-out: MIC
Description: The minimum inhibitory concentration (MIC) of the peptides was assayed using the micro broth dilution method, which is an important indicator of the antibacterial activity of the AMPs ([Liu et al., 2021]). […] The MIC was defined as the lowest concentration of ones at which no visible bacterial growth was observed. All the assays were repeated thrice.

S. aureus ATCC43300 [4] = assay: Time-kill curve (bacterial kinetics in vitro); assay type: cell-based, Staphylococcus aureus; details: 2× MIC, 1 × 10^5 CFU/mL, 37°C, 250 rpm, colony counting
Description: The bactericidal efficiency of Ple-AB was evaluated by plotting a time-kill curve ([Zheng et al., 2021]). Single colonies of the S. aureus ATCC43300 were picked for overnight activation, and 1% were transferred and incubated at 37°C until the logarithmic growth phase. […] Samples of 100 uL of bacteria were taken at 0, 0.5, 1, 2, 4, 6, 8, 10, 12, and 24 h, diluted, and coated to count the number of single colonies and plot the time-killing curve.

| SMILES | Hemolytic activity (mouse erythrocytes) [%] | Time of co-incubation with simulated intestinal fluid after which activity is lost (S. aureus ATCC43300 [1]) [min] | MIC (S. aureus ATCC43300 [2]) | MIC (S. aureus CVCC546) | MIC (S. aureus E48) | MIC (P. aeruginsoa CICC21630) | MIC (E. coli O157) | MIC (S. aureus ATCC43300 [3]) [µg/mL] | Time to kill all the strains (S. aureus ATCC43300 [4]) [h] |
| --- | --- | --- | --- | --- | --- | --- | --- | --- | --- |
| CC[C@H](C)[C@@H]1NC(=O)[C@H](CO)NC(=O)[C@H](CCCCN)NC(=O)[C@@H]2CSSC[C@@H](C(=O)N[C@@H](Cc3ccc(O)cc3)C(=O)O)NC(=O)[C@H](CCCCN)NC(=O)[C@@H]3CSSC[C@H](NC(=O)[C@H](CCC(N)=O)NC(=O)[C@H](CCSC)NC(=O)[C@H](CC(=O)O)NC(=O)[C@H](CC(=O)O)NC(=O)[C@H](CCC(=O)O)NC(=O)[C@H](CC(=O)O)NC(=O)[C@H](Cc4c[nH]c5ccccc45)NC(=O)[C@@H]4CCCN4C(=O)CNC(=O)[C@H](CC(N)=O)NC(=O)[C@@H](NC(=O)CNC(=O)[C@H](Cc4ccccc4)NC(=O)CN)CSSC[C@H](NC(=O)[C@H](Cc4ccc(O)cc4)NC(=O)CNC(=O)CNC(=O)[C@H](CCCCN)NC(=O)[C@H](Cc4ccc(O)cc4)NC(=O)CNC(=O)[C@H](CCCCN)NC1=O)C(=O)N[C@@H](C)C(=O)N[C@@H](CCCCN)C(=O)NCC(=O)NCC(=O)N[C@@H](Cc1ccccc1)C(=O)N[C@@H](C(C)C)C(=O)N3)C(=O)N[C@@H](Cc1c[nH]cn1)C(=O)N[C@@H](CC(N)=O)C(=O)N[C@@H](Cc1c[nH]cn1)C(=O)N2 [Plectasin] | 68 | 15 to 30 | 4^a μg/mL | 16^a μg/mL | 4^a μg/mL | >128 ^a μg/mL | >128 ^a μg/mL |  |  |
| CN[C@H](CC(C)C)C(=O)N[C@H]1C(=O)N[C@@H](CC(N)=O)C(=O)N[C@H]2C(=O)N[C@H]3C(=O)N[C@H](C(=O)N[C@H](C(=O)O)c4cc(O)cc(O)c4-c4cc3ccc4O)[C@H](O)c3ccc(c(Cl)c3)Oc3cc2cc(c3O[C@@H]2O[C@H](CO)[C@@H](O)[C@H](O)[C@H]2O[C@H]2C[C@](C)(N)[C@H](O)[C@H](C)O2)Oc2ccc(cc2Cl)[C@H]1O [vancomycin, reference compound] |  |  |  |  |  |  |  | 1 (≈ 0.69 µM) | 6 |
